Tests used:
SNU-16 = test: 2D cell proliferation assay, SNU-16; format: cell-based; settings: Homo sapiens, 96 hours, CTG, read-out: Cell Line, IC50 SNU-16
Procedure: (§1) Low IC50 values are indicative of the high potency of the FGFR inhibitor compounds in this assay selling. […] Cell proliferation assays are performed in two-dimensional (2D)) anchorage-dependent conditions in 96 well plates (Corning® Black/Clear flat Bottom, Cat #3603) with the following cell lines: • Ba/F3 FGFR2-BICC1 (human […]): Mouse Ba/F3 cell line stably expressed exogenous human FGFR2-BICC1 fusion gene bearing V546F mutation in FGFR2 Ba/F3; • FGFR2-BICC1 (human FGFR2/[…]): Mouse Ba/F3 cell line stably expressed exogenous human FGFR2-BICC1 fusion gene bearing N549K mutation in FGFR2; • Snu-16: human gastric cancer cell with FGFR2 amplification; • KATO III: human gastric cancer cell with FGFR2 amplification; • AN3CA: Human endometrial cancer with FGFR2 mutation (k310R, N549K); • MFM-223: Human breast cancer with FGFR1/2 amplification; • MFE-296: Human endometrial cancer with FGFR2 mutation (N549K); • MFE-280: Human endometrial cancer with FGFR2 mutation ([…]); • NCI-H1581: human non-small cell lung cancer with FGFR1 amplification; • KG-1a: Acute myelogenous leukemia with FGFR1OP2-FGFR1 translocation; • DMS114: human small cell carcinoma of the lung with FGFR1 amplification; • RT112: human bladder cancer with FGFR3 overexpression/FGFR3-TACC3 fusion; • SW780: human bladder cancer with FGFR3 overexpression/FGFR3-BALAP2L1 fusion; • Hep3B: Liver cancer with FGF19 amplification (FGFR4 ligand); • AGS: Human gastric adenocarcinoma with Kras G12D mutation and FGFR wild type; • PC-9: human non-small cell lung cancer (NSCLC) with wild-type FGFR and an EGFR del19 mutation; or • H1975: human non-small cell lung cancer (NSCLC) with wild-type FGFR and EGFR L858R/T790M mutation.
(§2) Cell lines are purchased from the American Type Culture Collection (ATCC) or Sigma. All cell lines are maintained in RPMI-1640 or DMEM supplemented with 10% heat-inactivated fetal bovine serum.
(§3) Cells growing in the log phase are detached with Gibco™ TrypLE™ Express Enzyme and plated in 96 well plate at 3000 to 5000 cells/well in 100 μl of media. After overnight incubation at 37° C., 5% CO2 incubator, cells are treated with compounds (50 uL/well) at the final concentrations spanning from 0.000038 uM to 10 μM (4-fold serial dilution for total of 10 points). Cells are incubated at 37° C., 5% CO2, and 95% humidity incubator for 96 hours. At the end of incubation 2D CTG reagent from Promega was added to each well according to vendors recommendation and mixed for 10 min in dark. The luminescence signals are determined with a Biotek™ plate reader. Data is fitted using a sigmoidal curve analysis program (GraphPad Prism®) with variable hill slope and IC50 is determined.

FGFR1 = molecular target: T1, FGFR1 (Homo sapiens, UniProt P11362); test: pERK potency assay (In Cell ELISA), DMS114 cells; format: cell-based; settings: DMS114 (FGFR1 amplification) cells, 3 hours
T1 construct: DMS114 (FGFR1 amplification); host or cells: DMS114
How it was run: (§4)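 Cells with FGFR aberrations (DMS114 FGFR1 amplification, RT112 FGFR3-TACC3 fusion, AN3CA FGFR2 K310R/N549K) exposed 3 h at 37 °C to compound, final 0.000038–10 μM (4-fold dilutions). pERK (Thr202/Tyr204) quantified by In-Cell ELISA chemiluminescence; IC50 from 4-parameter sigmoidal fit.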

FGFR3 = molecular target: T2, FGFR3 (Homo sapiens, UniProt P22607); test: pERK potency assay (In Cell ELISA), RT112 cells; format: cell-based; settings: RT112 (FGFR3 overexpression/FGFR3-TACC3 fusion) cells, 3 hours
T2 construct: RT112 (FGFR3 overexpression/FGFR3-TACC3 fusion); host or cells: RT112; the other entry of the earlier key: TACC3 (Q9Y6A5, Transforming acidic coiled-coil-containing protein 3)
How it was run: as §4

Ba/F3 FGFR2-N549K = molecular target: T3, Ba/F3 FGFR2-N549K (Homo sapiens, UniProt P21802, N549K, cells depend on it); test: 2D cell proliferation assay, Ba/F3 FGFR2-N549K; format: cell-based, mouse; settings: 96 hours, CTG, read-out: Cell Line, IC50 Ba/F3 FGFR2-N549K
T3 construct: fused on or other part: Q9H694 (Protein bicaudal C homolog 1)
How it was run: (§5)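 Cells seeded at 3000–5000 cells/well in RPMI-1640 or DMEM with 10% FBS, treated next day with compounds at 0.000038–10 μM final (4-fold, 10 points) for 96 h at 37°C, 5% CO2. Viability by CellTiter-Glo luminescence; IC50 from sigmoidal variable-slope fit.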

KATO III = test: 2D cell proliferation assay, KATO III; format: cell-based; settings: Homo sapiens, 96 hours, CTG, read-out: Cell Line, IC50 KATO III
Procedure: as §1, §2, §3

FGFR2 = molecular target: T4, FGFR2 (Homo sapiens, UniProt P21802, K310R/N549K); test: pERK potency assay (In Cell ELISA), AN3CA cells; format: cell-based; settings: for IC50: pERK, AN3CA (FGFR2/k310R, N549K) cells, 3 hours; for FGFR1 IC50/FGFR2 IC50 / FGFR3 IC50/FGFR2 IC50: selectivity ratio, pERK potency; for FGFR1 IC50/FGFR2 IC50: FGFR2 relative to FGFR1; for FGFR3 IC50/FGFR2 IC50: FGFR2 relative to FGFR3
T4 construct: in FGFR aberrations of AN3CA (FGFR2/k310R, N549K); host or cells: AN3CA
How it was run: as §4

AN3CA = test: 2D cell proliferation assay, AN3CA; format: cell-based; settings: Homo sapiens, AN3-CA, 96 hours, CTG, read-out: Cell Line, IC50 AN3CA
Procedure: as §1, §2, §3

Ba/F3 FGFR2-V564F = molecular target: T5, Ba/F3 FGFR2-V564F (Homo sapiens, UniProt P21802, V564F, cells depend on it); test: 2D cell proliferation assay, Ba/F3 FGFR2-V564F; format: cell-based, mouse; settings: 96 hours, CTG, read-out: Cell Line, IC50 Ba/F3 FGFR2-V564F
T5 construct: fused on or other part: Q9H694 (Protein bicaudal C homolog 1)
How it was run: as §5

T1 sequence (P11362 22-822): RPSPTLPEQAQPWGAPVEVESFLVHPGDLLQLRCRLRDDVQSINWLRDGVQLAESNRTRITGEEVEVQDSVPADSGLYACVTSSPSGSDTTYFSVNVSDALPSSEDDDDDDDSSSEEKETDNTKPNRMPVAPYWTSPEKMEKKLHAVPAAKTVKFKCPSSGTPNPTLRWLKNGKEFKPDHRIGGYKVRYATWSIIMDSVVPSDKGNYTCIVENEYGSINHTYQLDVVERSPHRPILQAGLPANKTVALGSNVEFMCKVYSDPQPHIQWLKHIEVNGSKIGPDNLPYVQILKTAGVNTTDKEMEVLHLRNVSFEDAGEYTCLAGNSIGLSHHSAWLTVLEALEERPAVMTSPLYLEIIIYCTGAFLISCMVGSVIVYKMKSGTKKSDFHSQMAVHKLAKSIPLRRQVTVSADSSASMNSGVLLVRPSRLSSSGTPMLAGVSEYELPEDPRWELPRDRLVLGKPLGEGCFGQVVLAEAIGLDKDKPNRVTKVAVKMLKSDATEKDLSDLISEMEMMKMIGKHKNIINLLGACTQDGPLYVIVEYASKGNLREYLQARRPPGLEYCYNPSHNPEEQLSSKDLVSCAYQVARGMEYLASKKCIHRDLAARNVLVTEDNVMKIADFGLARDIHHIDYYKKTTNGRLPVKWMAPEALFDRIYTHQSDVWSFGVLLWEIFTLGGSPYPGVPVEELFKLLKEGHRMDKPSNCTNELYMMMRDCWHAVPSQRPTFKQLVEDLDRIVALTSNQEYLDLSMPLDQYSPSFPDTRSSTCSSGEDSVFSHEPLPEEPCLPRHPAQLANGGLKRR
T3 sequence (P21802 whole entry N549K, the tested form may be a part): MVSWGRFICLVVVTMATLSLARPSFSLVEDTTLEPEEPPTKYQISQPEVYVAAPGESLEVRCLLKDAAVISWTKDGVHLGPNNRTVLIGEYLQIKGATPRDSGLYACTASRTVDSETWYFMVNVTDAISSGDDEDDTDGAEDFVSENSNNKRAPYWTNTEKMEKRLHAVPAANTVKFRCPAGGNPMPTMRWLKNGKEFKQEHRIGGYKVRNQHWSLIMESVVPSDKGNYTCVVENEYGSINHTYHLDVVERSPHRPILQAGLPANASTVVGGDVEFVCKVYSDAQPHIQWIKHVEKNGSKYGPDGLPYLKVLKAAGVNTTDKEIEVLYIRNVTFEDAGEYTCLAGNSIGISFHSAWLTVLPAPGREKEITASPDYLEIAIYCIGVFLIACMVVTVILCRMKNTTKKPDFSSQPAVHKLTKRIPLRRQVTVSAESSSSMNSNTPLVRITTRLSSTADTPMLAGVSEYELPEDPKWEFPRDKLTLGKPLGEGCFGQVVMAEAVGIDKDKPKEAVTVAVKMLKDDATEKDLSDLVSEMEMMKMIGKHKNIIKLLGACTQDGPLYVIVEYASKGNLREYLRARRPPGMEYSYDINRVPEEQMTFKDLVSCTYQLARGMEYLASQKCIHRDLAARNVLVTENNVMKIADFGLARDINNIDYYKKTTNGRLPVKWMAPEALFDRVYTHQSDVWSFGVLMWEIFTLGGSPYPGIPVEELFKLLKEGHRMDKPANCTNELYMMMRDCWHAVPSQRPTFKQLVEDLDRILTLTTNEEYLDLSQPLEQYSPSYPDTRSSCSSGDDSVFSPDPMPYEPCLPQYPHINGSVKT
T5 sequence (P21802 whole entry V564F, the tested form may be a part): as the sequence (P21802 whole entry N549K, the tested form may be a part) above, with K549N, V564F counted along it
T4 sequence (P21802 22-821 K310R/N549K): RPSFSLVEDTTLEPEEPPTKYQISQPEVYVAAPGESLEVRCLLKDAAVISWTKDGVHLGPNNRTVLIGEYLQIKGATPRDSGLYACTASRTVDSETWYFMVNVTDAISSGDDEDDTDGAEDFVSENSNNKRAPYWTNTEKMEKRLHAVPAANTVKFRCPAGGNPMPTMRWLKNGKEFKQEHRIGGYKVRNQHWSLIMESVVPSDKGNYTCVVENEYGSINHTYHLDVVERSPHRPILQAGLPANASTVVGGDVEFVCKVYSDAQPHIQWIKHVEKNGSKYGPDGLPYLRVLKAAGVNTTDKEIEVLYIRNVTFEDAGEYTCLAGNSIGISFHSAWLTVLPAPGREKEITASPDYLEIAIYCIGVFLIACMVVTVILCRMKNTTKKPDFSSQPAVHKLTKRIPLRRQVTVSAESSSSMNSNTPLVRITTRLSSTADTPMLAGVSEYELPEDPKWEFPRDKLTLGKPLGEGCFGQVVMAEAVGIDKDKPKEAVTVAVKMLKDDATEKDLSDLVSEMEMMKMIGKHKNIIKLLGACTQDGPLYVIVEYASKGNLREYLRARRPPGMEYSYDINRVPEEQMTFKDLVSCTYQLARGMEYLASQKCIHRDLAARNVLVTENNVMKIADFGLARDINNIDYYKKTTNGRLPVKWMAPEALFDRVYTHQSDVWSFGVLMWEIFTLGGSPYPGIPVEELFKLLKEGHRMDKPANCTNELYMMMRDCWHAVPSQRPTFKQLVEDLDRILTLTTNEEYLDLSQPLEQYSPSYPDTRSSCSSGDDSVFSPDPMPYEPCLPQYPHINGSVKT

SMILES | IC50 (SNU-16) | IC50 (FGFR1) | IC50 (FGFR3) | GI50 (Ba/F3 FGFR2-N549K) | IC50 (KATO III) | IC50 (FGFR2) | FGFR1 IC50/FGFR2 IC50 (FGFR2) | FGFR3 IC50/FGFR2 IC50 (FGFR2) | IC50 (AN3CA) | GI50 (Ba/F3 FGFR2-V564F)
C=CC(=O)N1CCC2(CC=C(c3c(C#N)c4c(N)ncnc4n3C)CC2)CC1 [Example 57, 6-(3-acryloyl-3-azaspiro[5.5]undec-8-en-9-yl)-4-amino-7-methyl-7H-pyrrolo[2,3-d]pyrimidine-5-carbonitrile] | 1 to 10 nM | > 100 nM | > 100 nM | 10 to 30 nM | 1 to 10 nM | 1 to 10 nM | G (a selectivity ratio greater than 150 but less than or equal to 500) | H (a selectivity ratio greater than 500 but less than or equal to 1000) | 1 to 10 nM | > 100 nM
C=CC(=O)N1CCC2(CC=C(c3[nH]c4ncnc(N)c4c3-c3ncccn3)CC2)CC1 [Example 58, 1-(9-(4-amino-5-(pyrimidin-2-yl)-7H-pyrrolo[2,3-d]pyrimidin-6-yl)-3-azaspiro[5.5]undec-8-en-3-yl)prop-2-en-1-one] | 10 to 30 nM | > 100 nM | > 100 nM | 10 to 30 nM | 10 to 30 nM | 1 to 10 nM | G (a selectivity ratio greater than 150 but less than or equal to 500) | H (a selectivity ratio greater than 500 but less than or equal to 1000) | 1 to 10 nM | 1 to 10 nM
C=CC(=O)N1CCC2(CC=C(c3c(-c4cnccn4)c4c(N)ncnc4n3C)CC2)CC1 [Example 59, 1-(9-(4-amino-7-methyl-5-(pyrazin-2-yl)-7H-pyrrolo[2,3-d]pyrimidin-6-yl)-3-azaspiro[5.5]undec-8-en-3-yl)prop-2-en-1-one] | 30 to 100 nM | > 100 nM | > 100 nM | 1 to 10 nM | 30 to 100 nM | 1 to 10 nM | F (a selectivity ratio greater than 50 but less than or equal to 150) | H (a selectivity ratio greater than 500 but less than or equal to 1000) | 30 to 100 nM | ≤ 1 nM
C=CC(=O)N1CCC2(CC=C(c3c(-c4ccc(Oc5nccc(C)n5)c(F)c4)c4c(N)ncnc4n3C)CC2)CC1 [Example 62, 1-(9-(4-amino-5-(3-fluoro-4-((4-methylpyrimidin-2-yl)oxy)phenyl)-7-methyl-7H-pyrrolo[2,3-d]pyrimidin-6-yl)-3-azaspiro[5.5]undec-8-en-3-yl)prop-2-en-1-one] | 10 to 30 nM | > 100 nM | > 100 nM | 10 to 30 nM | 10 to 30 nM | 1 to 10 nM | F (a selectivity ratio greater than 50 but less than or equal to 150) | G (a selectivity ratio greater than 150 but less than or equal to 500) | 30 to 100 nM | ≤ 1 nM

Reference: patent US20260152503A1, “SPIROBICYCLIC COMPOUNDS” (ACERAND THERAPEUTICS (HONG KONG) LIMITED, priority 2022, published 2026)
